Structures can show the parent of a compound that is named as a salt.
Columns and labels:
Type in all cases: cell-based
[1] = tested on: Chikungunya virus (CHIKV); test: microbe, parasite or virus in culture; conditions: Chikungunya virus, Vero, 48 h, read-out: Percent viral inhibition CHKV
dengue virus (DENV) = test: microbe, parasite or virus in culture; conditions: Dengue virus, Vero, 120 h, read-out: Percent viral inhibition DENY
Marburg virus (MARV) = test: organism not typed; conditions: Vero, 72 h, read-out: Percent viral inhibition MARV

Row | SMILES | inhibition at 1 µM [1] | inhibition at 1 µM (dengue virus (DENV)) | inhibition at 1 µM (Marburg virus (MARV))
1 | CC(=O)NCC1CCN(Cc2cc(Oc3ccc(N4CCN(CCC(=O)O)CC4)nc3)nc(-c3cc(Cl)cc(Cl)c3)c2)CC1 [Example 11, 3-(4-(5-((4-((4-(Acetamidomethyl)piperidin-1-yl)methyl)-6-(3,5-dichlorophenyl)pyridin-2-yl)oxy)pyridin-2-yl)piperazin-1-yl)propanoic acid, 4 hydrochloride] | 17.9% | 30.2% | 41.6%
2 | CC(=O)NCC1CCN(Cc2cc(Oc3ccc(N4CCN(CCC(=O)O)CC4)nc3)nc(-c3cc(F)cc(Br)c3)c2)CC1 [Example 116] | 10.4% | 6.7% | 4.3%
3 | CN1CCN(c2ncc(Oc3cc(CN4CCC5(CC4)CN(C(=O)CO)C5)cc(-c4cc(Cl)cc(Cl)c4)n3)cn2)CC1 [Example 135, 1-(7-((2-(3,5-dichlorophenyl)-6-((2-(4-methylpiperazin-1-yl)pyrimidin-5-yl)oxy)pyridin-4-yl)methyl)-2,7-diazaspiro[3.5]nonan-2-yl)-2-hydroxyethanone] | 12.8% | 56.2% | 51.3%
4 | CN1CCN(c2ncc(Oc3cc(CN4CC[C@@H]5[C@H](CC4)[C@H]5CC(=O)O)cc(-c4cc(Cl)cc(Cl)c4)n3)cn2)CC1 [Example 224, 2-((1R,7S,8r)-4-((2-(3,5-dichloro-phenyl)-6-((2-(4-methylpiperazin-1-yl)pyrimidin-5-yl)oxy)pyridin-4-yl)methyl)-4-azabicyclo[5.1.0]octan-8-yl)acetic acid] | 33.1% | 72% | 52.3%
5 | CNC(=O)NCC1CCN(Cc2cc(Oc3cnc(N4CCN(CCC(N)=O)CC4)nc3)nc(-c3cc(Cl)cc(Cl)c3)c2)CC1 [Example 261, 3-(4-(5-((6-(3,5-dichlorophenyl)-4-((4-((3-methylureido)methyl)piperidin-1-yl)methyl)pyridin-2-yl)oxy)pyrimidin-2-yl)piperazin-1-yl) propanamide] | 0.69% | 53.6% | 56.8%
6 | O=C(O)C1[C@H]2CCN(Cc3cc(Oc4cnc(N5CCN6CCC5C6)nc4)nc(-c4cc(Cl)cc(Cl)c4)c3)CC[C@@H]12 (stereo partly drawn) [Example 337, (1R,7S,8r)-4-((2-((2-(1,4-diazabicyclo[3.2.1]octan-4-yl)pyrimidin-5-yl)oxy)-6-(3,5-dichlorophenyl)pyridin-4-yl)methyl)-4-azabicyclo[5.1.0] octane-8-carboxylic acid] | 15.9% | 0% | 37.6%
7 | CC(=O)NCC1CCN(Cc2cc(Oc3ccc(N4CCN(CCC(N)=O)CC4)nc3)nc(-c3cc(Cl)cc(Cl)c3)c2)CC1 [Example 13, 3-(4-(5-((4-((4-(acetamidomethyl)piperidin-1-yl)methyl)-6-(3,5-dichlorophenyl)pyridin-2-yl)oxy)pyridin-2-yl)piperazin-1-yl)propanamide] | 15.9% | 26.5% | 25.4%
8 | O=C(O)CC1CCN(Cc2cc(Oc3cnc(N4CCNC5(CC5)C4)nc3)nc(-c3cc(Cl)cc(Cl)c3)c2)CC1 [Example 164, 2-(1-((2-((2-(4,7-diazaspiro[2.5]octan-7-yl)pyrimidin-5-yl)oxy)-6-(3,5-dichlorophenyl)pyridin-4-yl)methyl)piperidin-4-yl)acetic acid] | 34.6% | 45.5% | 36.1%
9 | O=C(O)CC1CCN(Cc2cc(Oc3cnc(N4CCN(CCF)CC4)nc3)nc(-c3cc(Cl)cc(Cl)c3)c2)CC1 [Example 236, 2-(1-((2-(3,5-dichlorophenyl)-6-((2-(4-(2-fluoroethyl)piperazin-1-yl)pyrimidin-5-yl)oxy)pyridin-4-yl)methyl)piperidin-4-yl)acetic acid] | 39.8% | 64.5% | 68.5%
10 | NC1CCN(c2ncc(Oc3cc(CN4CCC(CC(=O)O)CC4)cc(-c4cc(Cl)cc(Cl)c4)n3)cn2)CC1 [Example 158, 2-(1-((2-((2-(4-aminopiperidin-1-yl)pyrimidin-5-yl)oxy)-6-(3,5-dichlorophenyl)pyridin-4-yl)methyl)piperidin-4-yl)acetic acid] | 2.85% | 19.3% | 18%
11 | CN1CCCN(c2ccc(Oc3cc(CN4CC[C@@H]5[C@H](CC4)[C@H]5C(=O)O)cc(-c4cc(Cl)cc(Cl)c4)n3)nn2)CC1 [Example 362, (1R,7S,8r)-4-((2-(3,5-dichlorophenyl)-6-((6-(4-methyl-1,4-diazepan-1-yl)pyridazin-3-yl)oxy)pyridin-4-yl)methyl)-4-azabicyclo[5.1.0]octane-8-carboxylic acid] | 14.9% | 50.2% | 50.9%
12 | CC(=O)NCC1CCN(Cc2cc(Oc3cnc(N4CCN(CCC(N)=O)CC4)nc3)nc(-c3cc(F)c(F)c(Cl)c3)c2)CC1 [Example 273] | 23.4% | 25.4% | 58.5%
13 | CN1CCN(c2ncc(Oc3cc(CN4CCC(CC(=O)O)CC4)cc(-c4cc(Cl)cc(Cl)c4)n3)cn2)CC(F)C1 (stereo not drawn) [Example 147, 2-(1-((2-(3,5-dichlorophenyl)-6-((2-(6-fluoro-4-methyl-1,4-diazepan-1-yl)pyrimidin-5-yl)oxy)pyridin-4-yl)methyl)piperidin-4-yl)acetic acid] | 31.7% | 42.8% | 44.2%
14 | CC(=O)NCC1CCN(Cc2cc(Oc3cnc(N4CCN(CCS(C)(=O)=O)CC4)nc3)cc(-c3cc(Cl)cc(Cl)c3)c2)CC1 [Example 167, N-((1-((3′,5′-dichloro-5-((2-(4-(2-(methylsulfonyl)ethyl)piperazin-1-yl)pyrimidin-5-yl)oxy)-[1,1′-biphenyl]-3-yl)methyl)piperidin-4-yl)methyl)acetamide] | 0% | 41.3% | 0%
15 | CC(=O)NCC1CCN(Cc2cc(Oc3cnc(N4CCN(CCC(=O)O)CC4)c(F)c3)nc(-c3cc(Cl)cc(Cl)c3)c2)CC1 [Example 266] | 22.6% | 48.7% | 56.3%
16 | CC(O)CCN1CCN(c2ncc(Oc3cc(CN4CCC(CC(=O)O)CC4)cc(-c4cc(Cl)cc(Cl)c4)n3)cn2)CC1 (stereo not drawn) [Example 237, 2-(1-((2-(3,5-dichlorophenyl)-6-((2-(4-(3-hydroxybutyl)piperazin-1-yl)pyrimidin-5-yl)oxy)pyridin-4-yl)methyl)piperidin-4-yl)acetic acid] | 37% | 52.1% | 37.7%
17 | CC(=O)NCC1CCN(Cc2cc(Oc3cnc(N4CCN(C(C)CCS(C)(=O)=O)CC4)nc3)nc(-c3cc(Cl)cc(Cl)c3)c2)CC1 (stereo not drawn) [Example 19, N-((1-((2-(3,5-dichlorophenyl)-6-((2-(4-(4-(methylsulfonyl)butan-2-yl)piperazin-1-yl)pyrimidin-5-yl)oxy)pyridin-4-yl)methyl)piperidin-4-yl)methyl)acetamide] | 21.6% | 35.5% | 79.8%
18 | CC(=O)NCC1CCN(Cc2cc(Oc3cnc(N4CCN(CC(C)(C)O)CC4)nc3)nc(-c3cc(Cl)cc(Cl)c3)c2)CC1 [Example 303, N-((1-((2-(3,5-dichlorophenyl)-6-((2-(4-(2-hydroxy-2-methylpropyl)piperazin-1-yl)pyrimidin-5-yl)oxy)pyridin-4-yl)methyl)piperidin-4-yl)methyl)acetamide] | 33.4% | 34.4% | 49.6%
19 | O=C(O)CC1CCN(Cc2cc(Oc3cnc(N4CCN(Cc5cnn[nH]5)CC4)nc3)nc(-c3cc(Cl)cc(Cl)c3)c2)CC1 [Example 387, 2-(1-((2-((2-(4-((1H-l,2,3-triazol-5-yl)methyl)piperazin-1-yl)pyrimidin-5-yl)oxy)-6-(3,5-dichlorophenyl)pyridin-4-yl)methyl)piperidin-4-yl)acetic acid] | 36.3% | 39.9% | 41.4%
20 | CNC(=O)NCC1CCN(Cc2cc(Oc3cnc(N4CCN(C)CC4)nc3)nc(-c3cc(Cl)cc(Cl)c3)c2)CC1 [Example 70, 1-((1-((2-(3,5-dichlorophenyl)-6-((2-(4-methylpiperazin-1-yl)pyrimidin-5-yl)oxy)pyridin-4-yl)methyl)piperidin-4-yl)methyl)-3-methylurea] | 0% | 0% | 5.52%
21 | CC(=O)NCC1CCN(Cc2cc(Oc3ccc(N4C[C@@H]5C[C@H]4CN5CCS(C)(=O)=O)nc3)nc(-c3cc(Cl)cc(Cl)c3)c2)CC1 [Example 183, N-((1-((2-(3,5-dichlorophenyl)-6-((6-((1S,4S)-5-(2-(methylsulfonyl)ethyl)-2,5-diazabicyclo[2.2.1]heptan-2-yl)pyridin-3-yl)oxy)pyridin-4-yl)methyl)piperidin-4-yl)methyl)acetamide] | 16.4% | 21% | 74.8%
22 | NC(=O)OCCN1CCN(Cc2cc(Oc3cnc(N4CCN(CCC(=O)O)CC4)nc3)nc(-c3cc(Cl)cc(Cl)c3)c2)CC1 [Example 54, 3-(4-(5-((4-((4-(2-(carbamoyloxy)ethyl)piperazin-1-yl)methyl)-6-(3,5-dichlorophenyl)pyridin-2-yl)oxy)pyrimidin-2-yl)piperazin-1-yl)propanoic acid] | 36.8% | 70.5% | 62.7%
23 | CN1CCN(c2ncc(Oc3cc(CN4CCC(CC(=O)O)CC4)cc(-c4cc(Cl)cc(Cl)c4)c3)cn2)CC1 [Example 117, 2-(1-((3′,5′-dichloro-5-((2-(4-methylpiperazin-1-yl)pyrimidin-5-yl)oxy)-[1,1′-biphenyl]-3-yl)methyl)piperidin-4-yl)acetic acid] | 18% | 28.6% | 43.6%

— patent publication US20230011571A1, “SMALL MOLECULE FURIN INHIBITORS FOR TREATING INFECTIOUS DISEASES” (BP Asset V, Inc., priority 2019, published 2023)
